Experimental findings from publication PMC6278467, “Isolation and Identification of Potent Antidiabetic Compounds from Antrodia cinnamomea—An Edible Taiwanese Mushroom” (Molecules, 2018) are described below.

This experiment concerns the target T1, Saccharomyces cerevisiae α-glucosidase.
T1 construct: gene MAL12; commercial enzyme from Sigma Chemical Co
In words: pNPG hydrolysis, absorbance at […] nm. It is filed as biochemical. The following applies: p-NPG (10 mmol/L stock, 50 μL), 0.1 mol/L potassium phosphate pH 7, 37 °C, 20 min preincubation.

[1] abbreviates: value lies below the stated tested range (0.02-0.25, unit printed as μg/mL in footnote).

Values after ≈ are worked out from the molar mass of the structure shown.

As for `C=C(CC[C@@H](C)[C@H]1CC[C@H]2C3=C(C(=O)C[C@]12C)[C@@]1(C)CC[C@@H](O)[C@](C)(O)[C@@H]1C[C@@H]3O)[C@@H](C)C(=O)O` [compound 2, 25R-antcin K], the EC50 – broadly, the concentration that produces a half-maximal response – was 54 ± 0.4 µg/mL (≈ 111 µM). With `C=C(CC[C@@H](C)[C@H]1CC[C@H]2C3=C(C(=O)C[C@]12C)[C@@]1(C)CCC(=O)[C@@H](C)[C@@H]1CC3=O)[C@H](C)C(=O)O` [compound 5, 25S-antcin B], the “EC50” value was found to be 210 ± 7.6 µg/mL (≈ 448 µM). `C=C(CC[C@@H](C(=O)O)[C@H]1CC[C@@]2(C)C3=CC[C@H]4C(C)(C)[C@@H](O)CC[C@]4(C)C3=CC[C@]12C)C(C)C` [compound 7, dehydroeburicoic acid]: under setting [1], the “EC50” value was determined as 18 ± 0.2 µg/mL (≈ 38.4 µM). On the same count and under the same terms, as for `C=C(CC[C@@H](C(=O)O)[C@H]1CC[C@@]2(C)C3=C(CC[C@]12C)[C@@]1(C)CC[C@H](O)C(C)(C)[C@@H]1CC3)C(C)C` [compound 8, eburicoic acid], the figure is 12 ± 0.4 µg/mL (≈ 25.5 µM).
